# Where a name gives a salt, the structure may show the parent alone.
# Experiments:
# Assay type in all cases: cell-based
# [1] = test system: DU145 prostate cancer cells; experiment: High content imaging-based screen (Cellomics) for lysosome migration inhibitors; details: 16 hours; for hit in screen for lysosome migration inhibitors (mean ring spot count): pH 6.4 media, 2 micrograms per ml
# Protocol: DEVELOPMENT OF A HIGH CONTENT IMAGING-BASED SCREEN: The followings process was followed to identify chemicals that were lysosome migration inhibitors. DU145 prostate cancer cells were seeded in 96 well flat bottom black walled plates at 4,500 cells per well. All compounds and controls were exposed to RPMI bicarbonate buffered media (pH 6.4). RPMI buffered media titrated at pH of 6.4-6.8 was added to column 12 after the media was removed and serves as negative control (low acidic pH so lysosomes move out). […] The 4 compound libraries chosen to screen were the NIH Clinical Collection (450 drugs), Prestwick (1200 drugs), Prestwick phytochemical and the Green Pharma collection (xx drugs). Compounds were diluted with buffered RPMI media to 2 micrograms per ml concentrations. Individual compounds to be screened were added robotically as a single compound per well through columns 2-11. Plates were incubated at 37 degrees in 5% CO2 for 16 hours then the medium was removed and the cells were fixed with 4% cold paraformaldehyde (Sigma-Aldrich) for 20 minutes at 4 degrees. Fixed cells were washed once with PBS. To stain lysosomes, cells were incubated for 1 hour with LAMP1 antibody (H4A3) diluted in BSP (containing 0.25% BSA and 0.1% saponin in PBS) at 1/200. Cells were then washed with PBS 3 times then incubated for 1 hour with Dylight Donkey anti-mouse diluted at 1/200 in BSP. To stain the nucleus, cells were then washed with PBS 3 times and incubated for 20 minutes with 1×DAPI diluted in PBS. DAPI was washed off with PBS and cells were maintained in PBS for the duration of the screening process. Plates were mounted and read in a Cellomics Arrayscan automated fluorescence imager. The Cellomics platform allows for high content throughput screening by combining fluorescence microscopy with a multi-parameter image analysis. Cells were photographed using 20× objective in 2 fluorescent channels. A total of 15 different fields in each well, and at least 300 cells were imaged per well. The biocompartmental analysis algorithm was used to identify each cell by its nucleus (channel 1 recognized by the DAPI stain) and to generate a cytoplasmic mask (ring) of 12 pixels width in which the inner ring was 6 pixels away from the nucleus. The algorithm calculates the number of lysosomes inside the ring as indicated by fluorescent LAMP-1 positive puncta in channel 2 as a mean ring spot count. Therefore, when lysosomes move away from the nucleus and disperse throughout the cytoplasm, the number of spots representing lysosomes inside the cytoplasmic ring increases (low pH conditions). By contrast, lysosomes cluster near the nucleus the numbers of spot inside the cytoplasmic ring decreases (EIPA treated).
# Z′-factor is a simple statistical coefficient used to assess performance and quality of the assay in high-throughput screening. It is calculated with the formula: Z′=1-(3σct+3σcb)/|μct−μcb|, where p indicates mean, a represents standard deviation, “ct” indicates the positive control, “cb” indicates the negative control. […] If the Z′ is more than 0.5, the assay is considered to be high quality assay.
# The Z′ factor of the assay was determined from the EIPA (positive control) and low pH (negative control). Experiments were run in duplicate. Only plates with positive Z′ factor was used for analysis.
# A172 glioblastoma cells = experiment: Acidic media pH induced lysosome distribution, LAMP-1 IF imaging; details: EIPA, low pHe media
# Protocol: A172 glioblastoma cells were treated overnight with 5 or 10 μM deptropine or pizotifen or with the deptropine or pizotifen in combination at 5 μM concentration. The next day, media was change to low pHe media containing deptropine or pizotifen and the cells were incubated for an additional 2 h. EIPA is a known inhibitor of lysosomal outward movement and represents the positive control. At the end of the incubation time, cells were fixed and stained for LAMP-1, filamentous actin and nuclei. Representative merged IF images depicting the effect of pHe 7.4, pHe 6.4, DMSO or deptropine and pizotifen on the distribution of lysosomes in A172 glioblastoma cells. On color versions of the Figure, red puncta are lysosomes, blue is nuclei and green is actin. As could be seen, lysosomes appear more peripherally distributed in A172 glioma cells than in cells treated with concentrations of 5 to 10 micromolar deptropine or pizotifen.
# Cells were treated as described above with FIG. 2 but included a concentration of 0.1 micromolar and 1 micromolar deptropine and pizotifen.
# Turning to FIG. 7, an additional aspect of this technology is how quickly deptropine and pizotifen act to move lysosomes towards the nucleus. […] A172 glioblastoma cells were treated with the 5 or 10 μM deptropine or pizofifen for 2 h and then with low pHe media containing the drugs for an additional 2 hours. At the end of incubation time, cells were fixed and stained for LAMP-1, filamentous actin, and nuclei. Representative merged IF images depicting the effect of DMSO, 5 and 10 μM deptropine or pizotifen upon 4 hours on the distribution of lysosomes, colored red in color images, in A172 glioblastoma cells. Also shown in color images are actin, colored green, and nuclei, colored blue.
# Erk signaling pathway = experiment: Lysosome inward movement in the presence of the MAPK inhibitor U0126, and Erk western blot; details: deptropine and pizotifen 5 μM, 4 hours, A172 cells
# Protocol: Turning to FIG. 8, deptropine and pizotifen are shown to act through the Erk signaling pathway. In this experiment, A172 cells were treated with deptropine and pizotifen at 5 μM concentrations for 4 hours in the presence of the MAPK inhibitor U0126. I.F. microscopy was then performed. This helped allow the determination of the mechanism of action of deptropine and pizotifen.
Molecule,hit in screen for lysosome migration inhibitors (mean ring spot count) [1],further results
CCN(c1nc(N)c(C(=O)NC(=N)N)nc1Cl)C(C)C [EIPA],,"lysosome position, positive control ([1]; EIPA 25 uM): lysosomes near the nucleus; acidic media induced lysosome redistribution, positive control (A172 glioblastoma cells): prevented lysosome redistribution and induced clustering of lysosomes around the nucleus"
N#CC(=C(/N)Sc1ccccc1N)/C(C#N)=C(\N)Sc1ccccc1N [U0126],,effect of U0126 on inward movement of lysosomes induced by deptropine and pizotifen (Erk signaling pathway): prevents the action of deptropine and pizotifen
CCCSc1ccc2nc(NC(=O)OC)[nH]c2c1 [albendazole],hits,
COc1cc2c(c(OC)c1OC)-c1ccc(OC)c(=O)cc1[C@@H](NC(C)=O)CC2 [colchicine],hits,
"CC(C)[C@@]1(NC(=O)[C@@H]2C[C@@H]3c4cccc5[nH]cc(c45)C[C@H]3N(C)C2)O[C@@]2(O)[C@@H]3CCCN3C(=O)[C@H](Cc3ccccc3)N2C1=O [dihydroergocristine mesylate, (5′α,10α)-9,10-Dihydro-12′-hydroxy-2′-(1-methylethyl)-5′-(phenylmethyl)-ergotaman-3′, 6′, 18-trione mesylate]",hits,
COC(=O)Nc1nc2ccc(Sc3ccccc3)cc2[nH]1 [fenbendazole],hits,
COc1ccc2c(c1)[nH]c1c(C)nccc12 [harmine],hit,
COC(=O)Nc1nc2ccc(C(=O)c3ccccc3)cc2[nH]1 [mebendazole],hits,
"OC(c1cc(C(F)(F)F)nc2c(C(F)(F)F)cccc12)C1CCCCN1 (stereo not drawn) [mefloquine, [(R*,S*)-2,8-bis(trifluoromethyl)quinolin-4-yl]-(2-piperidyl)methanol]",hit,
O=C(Nc1ccc([N+](=O)[O-])cc1Cl)c1cc(Cl)ccc1O [niclosamide],hits,
CC(=O)O[C@H]1C(=O)[C@@]2(C)[C@H]([C@H](OC(=O)c3ccccc3)[C@]3(O)C[C@H](OC(=O)[C@H](O)[C@@H](NC(=O)c4ccccc4)c4ccccc4)C(C)=C1C3(C)C)[C@]1(OC(C)=O)CO[C@@H]1C[C@@H]2O [paclitaxel],hits,
COc1cc([C@@H]2c3cc4c(cc3[C@H](O)[C@H]3COC(=O)[C@H]23)OCO4)cc(OC)c1OC [podophyllotoxin],hits,
O=C(c1ccc(OCCN2CCCCC2)cc1)c1c(-c2ccc(O)cc2)sc2cc(O)ccc12 [raloxifene],hits,
CC[C@]1(O)C[C@H]2CN(CCc3c([nH]c4ccccc34)[C@@](C(=O)OC)(c3cc4c(cc3OC)N(C=O)[C@H]3[C@@](O)(C(=O)OC)[C@H](OC(C)=O)[C@]5(CC)C=CCN6CC[C@]43[C@@H]65)C2)C1 [vincristine],hits,
CC[C@]1(O)C[C@@H]2CN(CCc3c([nH]c4ccccc34)[C@@](C(=O)OC)(c3cc4c(cc3OC)N(C)[C@H]3[C@@](O)(C(N)=O)[C@H](O)[C@]5(CC)C=CCN6CC[C@]43[C@@H]65)C2)C1 [vindesine],hits,
CCC1=C[C@@H]2CN(C1)Cc1c([nH]c3ccccc13)[C@@](C(=O)OC)(c1cc3c(cc1OC)N(C)[C@H]1[C@@](O)(C(=O)OC)[C@H](OC(C)=O)[C@]4(CC)C=CCN5CC[C@]31[C@@H]54)C2 [vinorelbine],hits,
dihydroergotoxine mesylate,hits,
